Source: patent US12059393B2, “Compositions for topical treatment of radiation dermatitis” (Akos Biosciences, Inc, priority 2022, dated 2024)

Key:
[1] = Body weight change in irradiated mice; format: in vivo, Balb/c mice
Protocol: (§1) A study was performed on mice to determine the efficacy of topically-dosed CBD in an olive oil vehicle for the treatment of acute radiation-induced dermatitis. Three different CBD dosages were used— 30 mg/mL (3 wt %), 120 mg/mL (12 wt %), and 250 mg/mL (25 wt %).
(§2) 144 female Balb/c mice with an average starting body weight (±SEM) of 17.96±0.12 grams were randomized into six (6) groups of 24 animals each, as follows:
(§3) The control group (Group 1) was not irradiated. The animals in Groups 2-6 were anesthetized via a single intraperitoneal injection of xylazine and ketamine prior to being administered a single dose of 30 Grays (Gy) of radiation directed at a 2 cm×4 cm patch of shaved dorsal skin on Day 0. Radiation was generated by a 160 kVp (15-ma) X-ray source at a focal distance of 10 cm, hardened with a 0.35 mm Cu filtration system at a rate of approximately 3.2 Gy/minute.
(§4) Dosing for animals in Groups 3-6 began on Day 0 immediately after radiation. Treatments were administered topically (0.1 mL per animal) daily from Days 0-28.
(§5) Starting on Day 8 and continuing every other day thereafter (Days 8-28), each animal was evaluated for skin redness and dermatitis, and photographed for subsequent blinded scoring of dermatitis at the completion of the study. Body weight was taken daily.

[2] = tested on: acute radiation-induced dermatitis; experiment: Blinded clinical dermatitis scoring in mouse radiation dermatitis model; format: in vivo, Balb/c mice; settings: for Dermatitis score % Change Group 4 vs. Group 3: 30 mg/mL CBD vs olive oil only; for Dermatitis score % Change Group 4 vs. Group 2: 30 mg/mL CBD vs radiation only
Protocol: as §1, §2, §3, §4, §5
Dermatitis was measured by blinded scoring of photographs at the end of the study. Two independent observers graded the photographs, and results were reported on a scale of 0 to 5 in 1.0 unit increments. The scale is described in the table below:
Data were evaluated using one-way ANOVA with Dunnett's multiple comparisons test to compare all groups to the vehicle control group using GraphPad Prism 8.4.3 (La Jolla, CA Duration of dermatitis data was evaluated using the Chi-square test to compare all groups to the vehicle-control group and radiation only group using SigmaPlot 11.0 (Systat Software, Inc.). Statistical significance was achieved when p<0.05.
The following table provides information on the duration of moderate dermatitis, which is defined as the number of days on which scores were at least 2
Bold values indicate a decrease (improvement), and underlined values indicate an increase (worsening).

[3] = 30 mg/mL CBD, 148 total animal days

In the case of `C=C(C)[C@@H]1CCC(C)=C[C@H]1c1c(O)cc(CCCCC)cc1O` [CBD, 2-[(1R,6R)-6-Isopropenyl-3-methylcyclohex-2-en-1-yl]-5-pentylbenzene-1,3-diol], the “Percent weight change over time” value ([1]; 30 mg/mL and 120 mg/mL CBD groups, topical daily Days 0-28, FIG. 1) is reported as “most closely followed the curve of the naïve group”, the “Percent weight change, difference between CBD-treated groups and the other three groups” value ([1]; three CBD-treated groups (30, 120, 250 mg/mL)) is reported as “not found to be statistically significant” and the “% Days ≥2” value ([2]; 30 mg/mL CBD) is reported as 50.68%. For the same compound, the “Mean dermatitis scores compared against Group 2 (radiation only) and Group 3 (olive oil only)” value ([2]; 30 mg/mL CBD (Group 4)) was “consistently decreased mean dermatitis scores”, the “Percentage of days with moderate dermatitis compared to the Olive oil only group (Group 3)” value ([2]; 30 mg/mL CBD (Group 4)) was “significantly lower” and the “Percentages of animals with moderate or severe dermatitis” value ([2]; 30 mg/mL CBD (Group 4), majority of surveyed days, vs olive oil only group) was “reduced percentages of animals with moderate or severe dermatitis”. The “Dermatitis score % Change Group 4 vs. Group 3” value ([2]; Day 8) was −22.22%, the “Dermatitis score % Change Group 4 vs. Group 3” value ([2]; Day 10) was −18.75% and the “Dermatitis score % Change Group 4 vs. Group 3” value ([2]; Day 12) was −21.62%. For the same compound, the “Dermatitis score % Change Group 4 vs. Group 3” value ([2]; Day 14) was −20.00%, the “Dermatitis score % Change Group 4 vs. Group 3” value ([2]; Day 16) was −23.33% and the “Dermatitis score % Change Group 4 vs. Group 3” value ([2]; Day 18) was −34.62%. For the same compound, the “Dermatitis score % Change Group 4 vs. Group 3” value ([2]; Day 20) was −38.10%, the “Dermatitis score % Change Group 4 vs. Group 3” value ([2]; Day 22) was −17.65% and the “Dermatitis score % Change Group 4 vs. Group 3” value ([2]; Day 24) was −23.53%. For the same compound, the “Dermatitis score % Change Group 4 vs. Group 3” value ([2]; Day 26) was −29.41%, the “Dermatitis score % Change Group 4 vs. Group 3” value ([2]; Day 28) was −31.25% and the “Dermatitis score % Change Group 4 vs. Group 2” value ([2]; Day 8) was 101.92%. The “Dermatitis score % Change Group 4 vs. Group 2” value ([2]; Day 10) was 10.80%, the “Dermatitis score % Change Group 4 vs. Group 2” value ([2]; Day 12) was −15.04% and the “Dermatitis score % Change Group 4 vs. Group 2” value ([2]; Day 14) was −8.78%. The “Dermatitis score % Change Group 4 vs. Group 2” value ([2]; Day 16) was −29.72%, the “Dermatitis score % Change Group 4 vs. Group 2” value ([2]; Day 18) was −35.07% and the “Dermatitis score % Change Group 4 vs. Group 2” value ([2]; Day 20) was −43.25%. The “Dermatitis score % Change Group 4 vs. Group 2” value ([2]; Day 22) was −32.46%, the “Dermatitis score % Change Group 4 vs. Group 2” value ([2]; Day 24) was −40.42% and the “Dermatitis score % Change Group 4 vs. Group 2” value ([2]; Day 26) was −42.11%. For the same compound, the “Dermatitis score % Change Group 4 vs. Group 2” value ([2]; Day 28) was −46.93%, the “Percentage of Animals with Moderate Dermatitis (≥2)” value (from here on “Percentage of Animals … (≥2)”) ([2]; 30 mg/mL CBD, Day 8) was 18.8% and the “Percentage of Animals with Moderate Dermatitis (≥3)” value (shortened to “Percentage of Animals … (≥3)”) ([2]; 30 mg/mL CBD, Day 8) was 0%. For the same compound, the “Percentage of Animals … (≥2)” value ([2]; 30 mg/mL CBD, Day 10) was 75%, the “Percentage of Animals … (≥3)” value ([2]; 30 mg/mL CBD, Day 10) was 6.3% and the “Percentage of Animals … (≥2)” value ([2]; 30 mg/mL CBD, Day 12) was 81.3%. The “Percentage of Animals … (≥3)” value ([2]; 30 mg/mL CBD, Day 12) was 18.8%, the “Percentage of Animals … (≥2)” value ([2]; 30 mg/mL CBD, Day 14) was 75% and the “Percentage of Animals … (≥3)” value ([2]; 30 mg/mL CBD, Day 14) was 56.3%. For the same compound, the “Percentage of Animals … (≥2)” value ([2]; 30 mg/mL CBD, Day 16) was 75%, the “Percentage of Animals … (≥3)” value ([2]; 30 mg/mL CBD, Day 16) was 41.7% and the “Percentage of Animals … (≥2)” value ([2]; 30 mg/mL CBD, Day 18) was 66.7%. The “Percentage of Animals … (≥3)” value ([2]; 30 mg/mL CBD, Day 18) was 0%, the “Percentage of Animals … (≥2)” value ([2]; 30 mg/mL CBD, Day 20) was 33.3% and the “Percentage of Animals … (≥3)” value ([2]; 30 mg/mL CBD, Day 20) was 0%. For the same compound, the “Percentage of Animals … (≥2)” value ([2]; 30 mg/mL CBD, Day 22) was 47.7%, the “Percentage of Animals … (≥3)” value ([2]; 30 mg/mL CBD, Day 22) was 0% and the “Percentage of Animals … (≥2)” value ([2]; 30 mg/mL CBD, Day 24) was 33.3%. The “Percentage of Animals … (≥3)” value ([2]; 30 mg/mL CBD, Day 24) was 0%, the “Percentage of Animals … (≥2)” value ([2]; 30 mg/mL CBD, Day 26) was 25% and the “Percentage of Animals … (≥3)” value ([2]; 30 mg/mL CBD, Day 26) was 0%. The “Percentage of Animals … (≥2)” value ([2]; 30 mg/mL CBD, Day 28) was 16.7%, the “Percentage of Animals … (≥3)” value ([2]; 30 mg/mL CBD, Day 28) was 0% and the “Days <2 (animal days)” value [2, 3] was 73. The “Days ≥2 (duration of moderate dermatitis, animal days)” value [2, 3] was 75, the “% Days ≥2” value ([2]; 120 mg/mL CBD) was 59.46% and the “Percentage of Animals … (≥2)” value ([2]; 120 mg/mL CBD, Day 8) was 18.8%. For the same compound, the “Percentage of Animals … (≥3)” value ([2]; 120 mg/mL CBD, Day 8) was 0%, the “Percentage of Animals … (≥2)” value ([2]; 120 mg/mL CBD, Day 10) was 87.5% and the “Percentage of Animals … (≥3)” value ([2]; 120 mg/mL CBD, Day 10) was 6.3%.
